For orientation: IC50 means the concentration that gives 50% inhibition. What is called inhibition is the change of the read-out against control, counted positive when it falls.

Details of series [1]: method as in PMID 34825653. The conditions noted are these: cited from earlier work.
Series [2] has as its system L5178Y mouse T-cell lymphoma cells. As to the kind of experiment: MTT cytotoxicity assay (24 h, 1 × 10^4 cells). The conditions noted are these: 24 h MTT, n = 3, read-out: Cytotoxicity (IC50 ± SD). In kind it is cell-based. On the procedure: (§1) To assess the compounds’ effect on cell growth and viability, we used two different experimental setups of MTT assay. This allowed a comparative evaluation of results obtained from a short-term (24 h) treatment of a relatively higher number (10,000) of cells and those from a long-term (72 h) treatment of a lower cell number (6000), which makes it possible to gain some insight into the cytotoxic vs. cytostatic properties of the compounds. Even though MTT assay is an endpoint detection method, i.e., it provides a single readout of viable cells at the end of the experiment, such a comparison offers a reliable tool to identify antiproliferative activity of compounds that are not cytotoxic.
(§2) L5178Y mouse T-cell lymphoma cells (ECACC Cat. No. 87111908) were obtained from FDA, Silver Spring, MD, USA. These were transfected with pHa MDR1/A retrovirus as described previously. ABCB1-expressing L5178YMDR cells were selected by culturing the infected cells with colchicine. The cell lines were cultured in McCoy’s 5A medium supplemented with 10% heat inactivated horse serum, 2 mM L-glutamine, and penicillin–streptomycin mixture.
(§3) MTT assay was performed in 96-well flat-bottomed microtiter plates as described before. Briefly, a 10 mM concentration stock solution in DMSO was prepared for each compound. These were diluted in 100 μL of McCoy’s 5A medium. Subsequently, 1 × 10^4 (cytotoxicity assay) or 6 × 10^3 (antiproliferative assay) T-cell mouse lymphoma cells in 100 μL of medium were added to each well, except for the medium control wells.
(§4) The culture plates were further incubated at 37 °C for 24 h (cytotoxicity assay) or 72 h (antiproliferative assay); at the end of the incubation period, 20 μL of MTT solution (from a 5 mg/mL stock) was added to each well. After incubation at 37 °C for 4 h, 100 μL of SDS solution (10% in 0.01 M HCI) was added to each well and the plates were further incubated at 37 °C overnight. The cell growth was determined by measuring the optical density at 540 nm (ref. 630 nm) with a Multiscan EX ELISA reader (Thermo Labsystems, Cheshire, WA, USA). IC50 values were calculated by variable slope nonlinear regression using the log(inhibitor) vs. normalized response of GraphPad Prism 5.01 (GraphPad Software Inc., San Diego, CA, USA).
(Tetrazolium assays rely on reduction of a dye to a coloured formazan, in cell work by metabolically active cells.)

Series [3] relates to L5178YMDR cells (ABCB1-expressing). In words: MTT cytotoxicity assay (24 h, 1 × 10^4 cells). In kind it is cell-based. The conditions noted are these: Mus musculus, 24 h MTT, n = 3, read-out: Cytotoxicity (IC50 ± SD). On the procedure:
as §1, §2, §3, §4

Series [4] has as its system MRC-5 human embryonal lung fibroblasts. In words: MTT antiproliferative assay (72 h). The class given is cell-based. The conditions noted are these: Homo sapiens, MRC5; MRC-5, 72 h MTT, n = 3; read-out: Antiproliferative Effect (IC50 ± SD). On the procedure: as §1
(§5) MRC-5 human embryonal lung fibroblasts (CCL-171, ATCC) were acquired from Sigma-Aldrich (Merck, KGaA, Darmstadt, Germany), and were cultured in EMEM medium containing 4.5 g/L glucose and supplemented with a non-essential amino acid mixture, a selection of vitamins, and 10% of FBS.
(§6) The adherent human fibroblast cells were seeded in 100 μL of EMEM medium overnight before each assay. Two-fold serial dilutions of the compounds (0.19–100 µM) were prepared in separate plates, then transferred to the plates containing the adherent cell lines.
as §4

A further series addresses T1, ABCB1 (Homo sapiens, UniProt P08183).
T1 construct: expressed in transfected cells; host or cells: L5178Y mouse T-cell lymphoma cells transfected with pHa MDR1/A retrovirus, selected with colchicine (L5178YMDR)
As to the kind of experiment: ABCB1 inhibition assay (rhodamine 123 accumulation, flow cytometry). The class given is cell-based. The settings on record: human, probe rhodamine 123 (5.2 µM), L5178YMDR, rhodamine 123 accumulation, n = 1. On the procedure:
ABCB1 inhibition was determined by the intracellular accumulation of rhodamin 123 as reported before. Briefly, 2 × 10^6 cells/mL of L5178Y and L5178YMDR cell lines were re-suspended in serum-free McCoy’s 5A medium and distributed in 0.5 mL aliquots into Eppendorf centrifuge tubes. The compounds were added at a final concentration of 2 or 20 μM and the samples were incubated for 10 min at room temperature. Tariquidar was used as positive control and DMSO as negative control; for the latter, no activity was observed. Subsequently, 10 μL (5.2 μM final concentration) of the ABCB1 substrate fluorescent dye rhodamine 123 was added and the cells were incubated further for 20 min at 37 °C, washed twice and re-suspended in 1 mL PBS for analysis. Fluorescence of the cell population was measured with a PartecCyFlow® flow cytometer (Partec, Münster, Germany). Mean fluorescence intensity percentage was calculated for the treated vs. untreated L5178YMDR cells. Inhibition percentage for the treated cells was calculated from the corresponding values of the untreated L5178Y and L5178YMDR cells, representing 100% and 0% inhibition, respectively.
Background: In flow cytometry, cells or beads pass a laser one at a time.

Series [5] concerns L5178Y mouse T-cell lymphoma cells. In words: MTT antiproliferative assay (72 h, 6 × 10^3 cells). In kind it is cell-based. The conditions noted are these: Mus musculus; L5178Y, 72 h MTT, n = 3; read-out: Antiproliferative Effect (IC50 ± SD). On the procedure:
as §1, §2, §3, §4

The test system of series [6] is L5178YMDR cells (ABCB1-expressing). As to the kind of experiment: MTT antiproliferative assay (72 h, 6 × 10^3 cells). The class given is cell-based. The settings on record: Mus musculus, 72 h MTT, n = 3, read-out: Antiproliferative Effect (IC50 ± SD). On the procedure: as §1, §2, §3, §4
The test system of another series is L5178YMDR cells. In words: Combination assay with doxorubicin (checkerboard microplate method, MTT). In kind it is cell-based, mouse. More on the design: Dm (antilog of the x-intercept of the median-effect plot): unit not given here. The settings on record: for CIavg (weighted average CI): (CI50 + 2CI75 + 3CI90)/6. On the procedure: Compounds 7, 10, 11, 13, and 14 had sufficient individual antiproliferative properties for their assessment of chemo-sensitizing activity. This was carried out as an antiproliferative assay on L5178YMDR cells in combination with doxorubicin, arranged according to the checkerboard microplate method.
The checkerboard microplate method was used to evaluate the compounds’ interaction with doxorubicin, as described before. Briefly, doxorubicin (2 mg/mL, Teva Pharmaceuticals, Budapest, Hungary) was serially diluted in the horizontal direction (100 µL per well), and the ecdysteroid was subsequently diluted in the vertical direction (50 µL per well). L5178YMDR cells were re-suspended in culture medium and added to each test well in 50 µL to contain 1 × 10^4 cells per well, and 50 µL of medium was added to the medium control wells. The plates were incubated for 72 h at 37 °C in a CO2 incubator and, at the end of the incubation period, the cell growth was determined by MTT assay as described above. Cell viability data were analyzed by the Calcusyn software using the Chou method, and drug interactions were expressed as combination index (CI) values, in which 0 < CI < 1, CI = 1, and CI > 1 refer to synergism, additivity, and antagonism, respectively.

Series [7] can be described thus: MTT cytotoxicity assay (24 h). In kind it is cell-based. The conditions noted are these: human, MRC-5 human embryonal lung fibroblasts; MRC-5, 24 h MTT, n = 3; read-out: Cytotoxicity (IC50 ± SD). On the procedure: as §1, §5, §6, §4
[8] abbreviates: drug ratio 23.2:1, with doxorubicin.
Where [9] appears, read: drug ratio 46.4:1, with doxorubicin.
The mark [10] stands for this setting: drug ratio 92.8:1, with doxorubicin.
The mark [11] stands for this setting: drug ratio 185.6:1, with doxorubicin.
Setting [12] is: drug ratio 11.6:1, with doxorubicin.
Setting [13] is: drug ratio 23.1:1, with doxorubicin.
[14] abbreviates: drug ratio 371.2:1, with doxorubicin.

Turning to `CC(C)(O)CC[C@@H](O)[C@](C)(O)[C@H]1CC[C@@]2(O)C3=CC(=O)[C@@H]4C[C@@H](O)[C@@H](O)C[C@]4(C)[C@H]3CC[C@]12C` [20-hydroxyecdysone], the “MasR activity, in words” value in [1] is listed as “agonist”.
`CC(=O)N[C@H]1CC[C@@]2(F)C3=CC(=O)[C@@H]4C[C@H]5OC(C)(C)O[C@H]5C[C@]4(C)[C@H]3CC[C@]12C` [Compound 14]: the IC50 in series [2] is > 100 µM; in [3], > 100 µM; in series [4] it was > 100 µM; in series [5], 71.6 ± 1.5 µM; in [6] it was 65.9 ± 2.1 µM. Besides, the inhibition at 20 min, 2 µM against ABCB1 worked out at 0.2%. Besides, the inhibition at 20 min, 20 µM against ABCB1 is -0.12%. Besides, the “CI at ED75” value in the series with L5178YMDR cells (setting [8]) was 0.73; in the series on L5178YMDR cells (setting [9]), 0.72; in the series with L5178YMDR cells (setting [10]), 0.86; in the series with L5178YMDR cells (setting [11]), 1.26. For the same compound, the “CI at ED90” value in the series with L5178YMDR cells (setting [8]) is on record as 0.63; in the series with L5178YMDR cells (setting [9]), 0.60; with L5178YMDR cells (setting [10]), 0.74; in the series on L5178YMDR cells (setting [11]), 1.24. Besides, the “Dm (antilog of the x-intercept of the median-effect plot)” value with L5178YMDR cells (setting [8]) was 9.04; in the series on L5178YMDR cells (setting [9]) it was 13.53; in the series on L5178YMDR cells (setting [10]), 20.47; in the series with L5178YMDR cells (setting [11]) it was 30.97. The “CIavg (weighted average CI)” value with L5178YMDR cells (setting [8]) is 0.70; with L5178YMDR cells (setting [9]) it was 0.68; in the series on L5178YMDR cells (setting [10]), 0.82; in the series on L5178YMDR cells (setting [11]), 1.25. Further, the IC50 at 24 h in series [7] was > 100 µM.
Take `CC(=O)[C@H]1CC[C@@]2(F)C3=CC(=O)[C@@H]4C[C@H]5OC(C)(C)O[C@H]5C[C@]4(C)C3=CC[C@]12C` [Compound 7]: the half-maximal inhibitory concentration (IC50) in series [2] is 38.6 ± 1.6 µM; in [3] it was 57.5 ± 6.3 µM; in [4] it was > 100 µM; in series [5], 15.2 ± 1.9 µM; in series [6], 20 ± 2.4 µM. Also, the inhibition at 20 min, 2 µM on ABCB1 was -0.24%. The inhibition at 20 min, 20 µM against ABCB1 was found to be 0.29%. For the same compound, the “CI at ED75” value in the series on L5178YMDR cells (setting [12]) turned out to be 0.76; in the series on L5178YMDR cells (setting [13]), 1.26; in the series with L5178YMDR cells (setting [9]), 0.84. The “CI at ED90” value was 0.59 in the series on L5178YMDR cells (setting [12]), 1.37 in the series with L5178YMDR cells (setting [13]) and 0.60 in the series with L5178YMDR cells (setting [9]). Besides, the “Dm (antilog of the x-intercept of the median-effect plot)” value in the series with L5178YMDR cells (setting [12]) amounted to 4.05; in the series on L5178YMDR cells (setting [13]) it was 7.83; in the series on L5178YMDR cells (setting [9]), 11.56. Further, the entries for the “CIavg (weighted average CI)” value in the series on L5178YMDR cells (setting [12]), in the series on L5178YMDR cells (setting [13]) and in the series with L5178YMDR cells (setting [9]) were 0.71, 1.30 and 0.78, respectively. Also, the IC50 at 24 h in series [7] is > 100 µM.
As for `CC(=O)[C@H]1CC[C@@]2(F)C3=CC(=O)[C@@H]4C[C@H]5OC(C)(C)O[C@H]5C[C@]4(C)[C@H]3CC[C@]12C` [Compound 11], the IC50 is 91.9 ± 9.3 µM in [2]; 81.9 ± 2.9 µM in series [3]; 10 ± 2.1 µM in series [4]; 31.8 ± 2.1 µM in [5]; 55.7 ± 5.9 µM in series [6]. Besides, the inhibition at 20 min, 2 µM on ABCB1 is -0.57%. Moreover, the inhibition at 20 min, 20 µM at ABCB1 is -0.51%. For the same compound, the “CI at ED75” value in the series with L5178YMDR cells (setting [8]) was 0.56; in the series with L5178YMDR cells (setting [9]), 0.55; in the series with L5178YMDR cells (setting [10]), 0.53; in the series on L5178YMDR cells (setting [11]) it was 0.66; with L5178YMDR cells (setting [14]) it was 0.72. The “CI at ED90” value with L5178YMDR cells (setting [8]) was 0.41; in the series on L5178YMDR cells (setting [9]), 0.39; in the series with L5178YMDR cells (setting [10]), 0.38; in the series on L5178YMDR cells (setting [11]), 0.48; in the series on L5178YMDR cells (setting [14]), 0.55. The “Dm (antilog of the x-intercept of the median-effect plot)” value came out at 7.00 in the series on L5178YMDR cells (setting [8]); 11.66 with L5178YMDR cells (setting [9]); 15.83 in the series on L5178YMDR cells (setting [10]); 24.06 in the series with L5178YMDR cells (setting [11]); 28.63 in the series on L5178YMDR cells (setting [14]). The “CIavg (weighted average CI)” value in the series on L5178YMDR cells (setting [8]) was found to be 0.52; in the series with L5178YMDR cells (setting [9]), 0.51; in the series on L5178YMDR cells (setting [10]), 0.49; with L5178YMDR cells (setting [11]), 0.61; in the series with L5178YMDR cells (setting [14]), 0.67. Besides, in [7], the IC50 at 24 h was > 100 µM.

Source of the values: article PMC8998355, “Diversity-Oriented Synthesis Catalyzed by Diethylaminosulfur-Trifluoride—Preparation of New Antitumor Ecdysteroid Derivatives” (International Journal of Molecular Sciences, 2022).
